Values joined by “and” are separate entries in the source; they are usually repeats but may differ in a detail not shown here. Identical values can stand only once. Inconclusive results and toxic doses are left out.

Our source for the T/C values is PubChem BioAssay AID330 (DTP/NCI, 2004).

The test system of this experiment is P388 leukemia ip, CD2F1 mice, survival T/C. As to the kind of experiment: NCI In Vivo Anticancer Drug Screen. Data for tumor model P388 Leukemia (intraperitoneal) in CD2F1 (CDF1) mice. The settings on record: endpoint: median survival time, higher = longer survival. In short, it runs like this: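 Mice carrying the transplanted tumor received test compound or vehicle. Survival was recorded in each group, and the value is the treated-group measurement divided by that of the vehicle-treated control group.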

[1] abbreviates: dose: 12.5 mg/kg/injection, schedule: Q01DX009 (ip), vehicle: distilled water + Tween-80.
Where [2] appears, read: dose: 25.0 mg/kg/injection, schedule: Q01DX009 (ip), vehicle: distilled water + Tween-80.
[3] abbreviates: dose: 50.0 mg/kg/injection, schedule: Q01DX009 (ip), vehicle: distilled water + Tween-80.
Where [4] appears, read: dose: 100.0 mg/kg/injection, schedule: Q01DX009 (ip), vehicle: distilled water + Tween-80.
Where [5] appears, read: dose: 25.0 mg/kg/injection, schedule: Q01DX009 (ip), vehicle: saline with Tween-80.
The mark [6] stands for this setting: dose: 50.0 mg/kg/injection, schedule: Q01DX009 (ip), vehicle: saline with Tween-80.
The mark [7] stands for this setting: dose: 100.0 mg/kg/injection, schedule: Q01DX009 (ip), vehicle: saline with Tween-80.
The mark [8] stands for this setting: dose: 60.0 mg/kg/injection, schedule: Q01DX005 (ip), vehicle: saline with Tween-80.
Setting [9] is: dose: 120.0 mg/kg/injection, schedule: Q01DX005 (ip), vehicle: saline with Tween-80.
[10] abbreviates: dose: 240.0 mg/kg/injection, schedule: Q01DX005 (ip), vehicle: saline with Tween-80.
Where [11] appears, read: dose: 200.0 mg/kg/injection, schedule: Q01DX009 (ip), vehicle: saline with Tween-80.

For the compound `N#Cc1ccc(NN=NCCO)cc1`, the T/C reads like this: under setting [1], 100 % of control; under setting [2], 102 % of control; under setting [3], 100 % of control; under setting [4], 102 % of control.
As for `CCN(CCO)CC(C)Nc1ccc([N+](=O)[O-])c2sc3ccccc3c(=O)c12` (stereo not drawn), the T/C runs as follows: under setting [5], 159 % of control; under setting [6], 190 % of control and 213 % of control; (dose: 66.0 mg/kg/injection, schedule: Q04DX003 (ip), vehicle: saline with Tween-80) 159 % of control; under setting [7], 100 % of control; (dose: 100.0 mg/kg/injection, schedule: Q04DX003 (ip), vehicle: saline with Tween-80) 213 % of control; (dose: 150.0 mg/kg/injection, schedule: Q04DX003 (ip), vehicle: saline with Tween-80) 118 % of control.
Turning to `CCCCN(CCCC)CCC(O)c1cc(-c2ccc(C(F)(F)F)cc2)nc(C(F)(F)F)c1` (stereo not drawn), the T/C was 89 % of control (dose: 6.25 mg/kg/injection, schedule: Q01DX009 (ip), vehicle: saline with Tween-80); 94 % of control (dose: 12.5 mg/kg/injection, schedule: Q01DX009 (ip), vehicle: saline with Tween-80); 110 % of control under setting [5].
Regarding `O=C1CC23CCCN2CCc2cc4c(cc2C3=C1O)OCO4` (stereo not drawn), the T/C by setting is: (dose: 1.56 mg/kg/injection, schedule: Q01DX009 (ip), vehicle: water) 98 % of control; (dose: 3.13 mg/kg/injection, schedule: Q01DX009 (ip), vehicle: water) 104 % of control; (dose: 6.25 mg/kg/injection, schedule: Q01DX009 (ip), vehicle: water) 98 % of control; (dose: 12.5 mg/kg/injection, schedule: Q01DX009 (ip), vehicle: water) 92 % of control; (dose: 25.0 mg/kg/injection, schedule: Q01DX009 (ip), vehicle: water) 88 % of control.
Consider `Cc1ccc(N2CCOS(=O)OCC2)cc1`, for which the T/C (dose: 50.0 mg/kg/injection, schedule: Q01DX005 (ip), vehicle: saline with Tween-80) was 101 % of control; the T/C (dose: 100.0 mg/kg/injection, schedule: Q01DX005 (ip), vehicle: saline with Tween-80) was 98 % of control; the T/C (dose: 200.0 mg/kg/injection, schedule: Q01DX005 (ip), vehicle: saline with Tween-80) is 101 % of control.
For `CC(OC(C(O)C=O)C(O)C(O)CO)C(=O)N[C@@H](C)C(=O)O` (stereo partly drawn), the T/C reads like this: under setting [8], 101 % of control; under setting [9], 100 % of control; under setting [10], 100 % of control.
As to `O=C(O)c1c(C(=O)O)c2cccn2c2c1cnn2-c1ccccc1`, the T/C under setting [8] is 102 % of control, the T/C under setting [9] is 100 % of control and the T/C under setting [10] is 100 % of control.
Turning to `CC1=CC(c2c(O)cc(O)c(C(=O)CCc3ccccc3)c2O)C(C(C)C)CC1` (stereo not drawn), the T/C is 94 % of control (dose: 3.75 mg/kg/injection, schedule: Q01DX005 (ip), vehicle: Klucel + Tween-80); 103 % of control (dose: 7.5 mg/kg/injection, schedule: Q01DX005 (ip), vehicle: Klucel + Tween-80); 97 % of control (dose: 15.0 mg/kg/injection, schedule: Q01DX005 (ip), vehicle: Klucel + Tween-80); 98 % of control (dose: 30.0 mg/kg/injection, schedule: Q01DX005 (ip), vehicle: Klucel + Tween-80).
For `COc1ccc2c(N3CCN(C(=O)C(Cl)(Cl)Cl)CC3)cc(C)nc2c1`, the T/C is 103 % of control under setting [8], 104 % of control under setting [9] and 102 % of control under setting [10].
As for `CC(=Nc1ccccc1)c1ccc2ccccc2c1`, the T/C is, setting by setting: under setting [7], 95 % of control; under setting [11], 90 % of control; (dose: 400.0 mg/kg/injection, schedule: Q01DX009 (ip), vehicle: saline with Tween-80) 90 % of control.
Consider `CCCCCC(C)N` (stereo not drawn), for which the T/C (dose: 12.5 mg/kg/injection, schedule: Q01DX009 (ip), vehicle: saline) is 95 % of control and the T/C (dose: 25.0 mg/kg/injection, schedule: Q01DX009 (ip), vehicle: saline) is 90 % of control.
In the case of `COC(=O)C1c2cc3c(c(O)c2C(OC2OC(C)C(OC)C(C)(OC)C2OC)CC1(C)O)C(=O)c1c(O)cc2c(c1C3=O)OC1OC2(C)C(O)C(N(C)C=O)C1O` (stereo not drawn), the T/C (dose: 1.56 mg/kg/injection, schedule: Q04DX003 (ip), vehicle: other) was 100 % of control; the T/C (dose: 3.12 mg/kg/injection, schedule: Q04DX003 (ip), vehicle: other) is 96 % of control; the T/C (dose: 6.25 mg/kg/injection, schedule: Q04DX003 (ip), vehicle: other) is 100 % of control; the T/C (dose: 12.5 mg/kg/injection, schedule: Q04DX003 (ip), vehicle: other) was 110 % of control; the T/C (dose: 25.0 mg/kg/injection, schedule: Q04DX003 (ip), vehicle: other) is 112 % of control.
Take `Cn1c2ccc(Cl)cc2c2c3ncncc3ccc21`: the T/C (dose: 50.0 mg/kg/injection, schedule: Q01DX001 (ip), vehicle: Klucel (hydroxypropylcellulose) (HPC)) was 96 % of control; the T/C (dose: 100.0 mg/kg/injection, schedule: Q01DX001 (ip), vehicle: Klucel (hydroxypropylcellulose) (HPC)) was 89 % of control; the T/C (dose: 200.0 mg/kg/injection, schedule: Q01DX001 (ip), vehicle: Klucel (hydroxypropylcellulose) (HPC)) was 91 % of control.
Consider `COc1ccc2c(c1)CC(CN1CCC3(CC1)C(=O)NCN3c1ccccc1)O2` (stereo not drawn), for which the T/C is 104 % of control under setting [6], 101 % of control under setting [7] and 100 % of control under setting [11].
As for `CC(=O)C1CC(CC(=O)O)C1(C)C` (stereo not drawn), the T/C was 96 % of control (dose: 25.0 mg/kg/injection, schedule: Q01DX009 (ip), vehicle: Klucel (hydroxypropylcellulose) (HPC)); 108 % of control and 92 % of control (dose: 50.0 mg/kg/injection, schedule: Q01DX009 (ip), vehicle: Klucel (hydroxypropylcellulose) (HPC)); 96 % of control and 97 % of control (dose: 100.0 mg/kg/injection, schedule: Q01DX009 (ip), vehicle: Klucel (hydroxypropylcellulose) (HPC)); 99 % of control and 100 % of control (dose: 200.0 mg/kg/injection, schedule: Q01DX009 (ip), vehicle: Klucel (hydroxypropylcellulose) (HPC)); 100 % of control (dose: 400.0 mg/kg/injection, schedule: Q01DX009 (ip), vehicle: Klucel (hydroxypropylcellulose) (HPC)).
`COc1cc(CCC(=O)O)on1`: the T/C was 101 % of control (dose: 50.0 mg/kg/injection, schedule: Q01DX009 (ip), vehicle: saline); 109 % of control (dose: 100.0 mg/kg/injection, schedule: Q01DX009 (ip), vehicle: saline); 108 % of control (dose: 200.0 mg/kg/injection, schedule: Q01DX009 (ip), vehicle: saline).
Turning to `O=C(Nc1ccc(NC2=NCCN2)cc1)c1cccc(C(=O)Nc2ccc(NC3=NCCN3)cc2)c1`, the T/C reads like this: (dose: 5.0 mg/kg/injection, schedule: Q01DX009 (ip), vehicle: saline with Tween-80) 109 % of control; (dose: 30.0 mg/kg/injection, schedule: Q01DX009 (ip), vehicle: saline with Tween-80) 100 % of control.
`CSc1ccc(N2C(=O)CSC2=O)cc1`: the T/C by setting is: under setting [6], 106 % of control; under setting [7], 114 % of control; under setting [11], 109 % of control.
For `CCC1=[N+](C)c2ccccc2C1(C)C`, the T/C is, setting by setting: (dose: 25.0 mg/kg/injection, schedule: Q04DX003 (ip), vehicle: saline) 100 % of control; (dose: 50.0 mg/kg/injection, schedule: Q04DX003 (ip), vehicle: saline) 99 % of control; (dose: 100.0 mg/kg/injection, schedule: Q04DX003 (ip), vehicle: saline) 107 % of control.
Take `O=P(O)(O)c1ccccc1P(=O)(O)O`: the T/C was 105 % of control (dose: 60.0 mg/kg/injection, schedule: Q01DX005 (ip), vehicle: saline) and 93 % of control (dose: 120.0 mg/kg/injection, schedule: Q01DX005 (ip), vehicle: saline).
Take `CC(=O)OCC(Cn1ccnc1[N+](=O)[O-])OC(C)=O` (stereo not drawn): the T/C by setting is: under setting [1], 100 % of control; under setting [2], 101 % of control; under setting [3], 100 % of control; under setting [4], 111 % of control; (dose: 200.0 mg/kg/injection, schedule: Q01DX009 (ip), vehicle: distilled water + Tween-80) 108 % of control.
